Like-named read-outs stand apart in the source and are kept apart here.
What was measured:
rat liver = assay: Serum ALT after GCV in neonatal rats given rAAV-PB-HSVtk and rAAV-PBo; type: in vivo; conditions: 50 mg/kg GCV, 2 injections 2 days apart, 2 weeks after rAAV-PB-HSVtk and rAAV-PBo (5e10 vector genomes each); serum one week later
Method: 20% targeted delivery is insufficient to induce desirable liver damage with ganciclovir (GCV). Three day old neonatal rats were injected with 5e10 vector genomes each of rAAV-PB-HSVtk and rAAV-PBo per animal. Due to the stable integration and expression of suicide gene HSVtk mediated by piggyBac transposon multiple injections of ganciclovir (GCV) can be administered over a prolonged period of time. 2 weeks later, each animal was injected with 50 mg/kg GCV (2 injections, 2 days apart). One week later blood serum was collected and analyzed for elevated ALT levels, which is indicative of liver damage. […] ALT levels in the 200-300 range in desirable prior to transplantation of human hepatocytes.

[1] = system: clinical trial participants; conditions: of 15 clinical trial participants; cited from earlier work
human liver = conditions: in vivo, cited from earlier work
[2] = system: mice, rats, dogs and primates; conditions: cited from earlier work
rats = conditions: bosentan-treated rats; cited from earlier work

Nc1nc(O)c2ncn(COC(CO)CO)c2n1 [GCV, ganciclovir]
serum ALT levels (liver damage) (rat liver): normal ALT levels

O=c1[nH]c(=O)n([C@@H]2O[C@H](CO)[C@@H](O)[C@@H]2F)cc1I [FIAU]
participants who developed acute liver failure [1]: seven | participants who died [1]: five | participants who required a liver transplant [1]: two | human-specific hepatotoxicity (human liver): known to cause human-specific hepatotoxicity | outcome of preclinical toxicology studies [2]: cleared all preclinical toxicology studies

COc1ccccc1Oc1c(NS(=O)(=O)c2ccc(C(C)(C)C)cc2)nc(-c2ncccn2)nc1OCCO [Bosentan]
hepatotoxicity in rats (rats): do not develop hepatotoxicity | human-specific hepatotoxicity (human liver): causes hepatotoxicity in a human-specific manner | human-specific hepatotoxicity (human liver; listed as Bosetan): known to cause human-specific hepatotoxicity
